Measurements as given in patent US20130116251A1, “Novel HSP90 Inhibitor” (Nippon Kayaku Kabushiki Kaisha, priority 2005, published 2013).
Where a name gives a salt, the structure may show the parent alone. Read-outs that look alike come from different tables or passages of the source.

Tests used:
[1] = target: rHSP90; assay: HSP90 binding assay (BIACORE SPR; inhibition of binding between rHSP90 and fixed herbimycin A); conditions: concentration inhibiting binding between rHSP90 (50 μg/mL) and fixed herbimycin A by 50%, BIACORE-X SPR; read-out: HSP90 inhibitory activity IC50
Excerpt: The HSP90 binding assay system is a system for detecting the change of mass as SPR signal caused by the binding between herbimycin A fixed on a sensor chip and rHSP90 by BIACORE-X, in which 17-(6-amino hexylamino)herbimycin A is fixed through a carboxyl group on the surface of the sensor chip (CM5, BIACORE) on which carboxymethyldextran has been introduced. The method was according to the protocol of BIACORE. In addition, 17-(6-aminohexylamino)herbimycin A was synthesizes as described below.
rHSP90 (Stressgen Biotechnologies Corp., Victoria, BC Canada) at 50 μg/mL was exposed for 10 seconds to the surface of the sensor chip on which herbimycin A was fixed and the SPR signal (numerical value of interaction) was detected.
After mixing rHSP90 protein (5×10^−7M (50 μg/mL)) with the triazole derivative of the present invention, the mixture was exposed for 10 seconds to the surface of the sensor chip on which herbimycin A was fixed, and the SPR signal was measured by BIACORE-X.
Next, using following formula (1), the inhibitory activity (binding inhibition rate (%)) of the compound of the present invention to the binding between rHSP90 and fixed herbimycin A was obtained.
binding inhibition rate(%)=((b−s)/b)×100 Formula (1)
wherein b is the SPR signal when the compound of the present invention is not added to the sample: s is the SPR signal when the compound of the present invention is added to the sample.

[2] = system: Human breast cancer cells (MCF7); assay: Antiproliferative activity on MCF7 cells (methylene blue method); assay type: cell-based; conditions: MCF7 cells, 72 hours treatment, 660 nm absorbance after methylene blue staining, read-out: Antiproliferative activity IC50
Experimental: Human breast cancer cells (MCF7) were treated with samples of various concentrations of known HSP90 inhibitors (that is, geldanamycin, herbimycin, radicicol and PU3) and the compounds of the present invention for 72 hours to confirm the effect of the triazole derivatives of the present invention on the cell growth. The cell ratio after the drug treatment was evaluated by measuring 660 nm absorbance by a microplate reader (BioRad) after staining the cells with the methylene blue method.
Cells were distributed to wells of 96 well plates at 2000 cells per well and treated with drugs 24 hours later. Further, the medium was removed 72 hours later and the cells were fixed by adding 50 μl of methanol and standing at room temperature for 2 minutes. After removing methanol, 100 μl of a staining solution was added and stained for 30 minutes. After washing 3 times with 200 μl of distilled water, 3% HCl solution was added, and the 660 nm absorbance of methylene blue was measured by a microplate reader (BioRad).
Next, the antiproliferative activity rate (%) was obtained by the formula (2) below.
Antiproliferative activity rate(%)=((B−A)/B)×100 Formula (2)
wherein B is 660 nm absorbance of the sample when the compound of the present invention is not added, and A is 660 nm absorbance of the sample when the compound of the present invention is added.
From the concentration of the triazole derivative of the present invention and the antiproliferative activity rate, the concentration was obtained using the above formula, at which the cell growth was suppressed by 50% by comparing with the control, and termed an IC50 value.
The antiproliferative activity rate (%) was obtained for SH-b04, SH-b05 and SH-b06 described above by a similar manner to that of the triazole derivatives of the present invention.

`CC(C)c1cc(-c2nnc(S(C)(=O)=O)n2-c2ccc(C[N+]3([O-])CCOCC3)cc2)c(O)cc1O` [SFN-a07, 4-isopropyl-6-{5-methanesulfonyl-4-[4-(morpholin-4-oxid-4-ylmethyl)-phenyl]-4H-[1,2,4]triazol-3-yl}benzene-1,3-diol] was tested, and the IC50 [1] was 320 nM and the IC50 ([2]; Homo sapiens, MCF7, 72 h) was 24000 nM.

For `CC(C)c1cc(-c2nnc(S(C)(=O)=O)n2C(C)C)c(O)cc1O` [SFN-a21, 4-isopropyl-6-(4-isopropyl-5-methanesulfonyl-4H-[1,2,4]triazol-3-yl)-benzene-1,3-diol], the IC50 [1] was 230 nM and the IC50 ([2]; Homo sapiens, MCF7, 72 h) was 16000 nM.

With `CC(C)c1cc(-c2nnc(S(C)(=O)=O)n2CCCN2CCOCC2)c(O)cc1O` [SFN-a27, 4-isopropyl-6-[5-methanesulfonyl-4-[3-(molpholin-4-yl)-propyl]-4H-[1,2,4]triazol-3-yl]-benzene-1,3-diol] the IC50 [1] was 1600 nM and the IC50 ([2]; Homo sapiens, MCF7, 72 h) was > 20000 nM.

In the case of `CC(C)c1cc(-c2nnc(S(C)(=O)=O)n2CCc2ccc[n+]([O-])c2)c(O)cc1O` [SFN-a29, 5-(2,4-dihydroxy-5-isopropylphenyl)-4-[2-(1-oxopyridin-3-yl)ethyl]-3-methanesulfonyl-4H-[1,2,4]triazole], the IC50 [1] is reported as 3600 nM and the IC50 ([2]; Homo sapiens, MCF7, 72 h) is reported as > 20000 nM.

With `CC(C)c1cc(-c2nnc(S(C)(=O)=O)n2CCCN2CCCC2=O)c(O)cc1O` [SFN-a30] the IC50 [1] was 2400 nM and the IC50 ([2]; Homo sapiens, MCF7, 72 h) was > 20000 nM.

`COCCn1c(-c2cc(C(C)C)c(O)cc2O)nnc1S(C)(=O)=O` [SFN-a32, 4-isopropyl-6-[5-methanesulfonyl-4-(2-methoxy-ethyl)-4H-[1,2,4]triazol-3-yl]-benzene-1,3-diol] was tested, and the IC50 [1] was 1900 nM and the IC50 ([2]; Homo sapiens, MCF7, 72 h) was > 20000 nM.

`CC(C)c1cc(-c2nnc(S(C)(=O)=O)n2C(CO)CO)c(O)cc1O` [SFN-a33, 4-[4-(2-hydroxy-1-hydroxymethyl-ethyl)-5-methanesulfonyl-4H-[1,2,4]triazol-3-yl]-6-isopropyl-benzene-1,3-diol] showed an IC50 [1] of 1300 nM and an IC50 ([2]; Homo sapiens, MCF7, 72 h) of 15000 nM.

`CC(C)c1cc(-c2nnc([S+](C)[O-])n2-c2ccc(C[N+]3([O-])CCOCC3)cc2)c(O)cc1O` (stereo not shown) [SFX-a07-TF, 4-isopropyl-6-{5-methylsulfinyl-4-[4-(morpholin-4-oxid-4-ylmethyl)-phenyl]-4H-[1,2,4]triazol-3-yl}-benzene-1,3-diol trifluoroacetate] gave an IC50 [1] of 64 nM and an IC50 ([2]; Homo sapiens, MCF7, 72 h) of 12000 nM.

Molecule `COc1ccc(-n2c(-c3cc(C(C)C)c(O)cc3O)nnc2[S+](C)[O-])cc1` (stereo not shown) [SFX-a08, 4-isopropyl-6-[5-methylsulfinyl-4-(4-methoxy-phenyl)-4H-[1,2,4]triazol-3-yl]-benzene-1,3-diol] has an IC50 [1] of 120 nM and an IC50 ([2]; Homo sapiens, MCF7, 72 h) of 360 nM.

`CC(C)c1cc(-c2n[nH]c(=S)n2-c2ccc(N3CCOCC3)cc2)c(O)cc1O` [SH-a01, 4-isopropyl-6-{5-mercapto-4-[4-(morpholin-4-yl)-phenyl]-4H-[1,2,4]triazol-3-yl}-benzene-1,3-diol] gave an IC50 [1] of 140 nM and an IC50 [2] of 14 nM.

`CC(C)c1cc(-c2n[nH]c(=S)n2-c2ccc(N3CCOCC3)cc2)c(O)cc1O` [SH-a01-TF, 4-isopropyl-6-{5-mercapto-4-[4-(morpholin-4-yl)-phenyl]-4H-[1,2,4]triazol-3-yl}-benzene-1,3-diol] was tested, and the IC50 [1] was 190 nM and the IC50 ([2]; Homo sapiens, MCF7, 72 h) was 20 nM.

In the case of `CC(C)c1cc(-c2n[nH]c(=S)n2-c2ccc(Br)cc2)c(O)cc1O` [SH-a03, 4-[4-(4-bromo-phenyl)-5-mercapto-4H-[1,2,4]triazol-3-yl]-6-isopropyl-benzene-1,3-diol], the IC50 [1] is reported as 150 nM and the IC50 ([2]; Homo sapiens, MCF7, 72 h) is reported as 150 nM.

`COc1ccc(-n2c(-c3cc(C(C)C)c(O)cc3O)n[nH]c2=S)cc1` [SH-a08, 5-(2,4-dihydroxy-5-isopropyl-phenyl)-4-(4-methoxy-phenyl)-2,4-dihydro-[1,2,4]-triazol-3-thione] showed an IC50 [1] of 85 nM and an IC50 ([2]; Homo sapiens, MCF7, 72 h) of 57 nM.

With `CC(C)c1cc(-c2n[nH]c(=S)n2-c2ccccc2)c(O)cc1O` [SH-a15] the IC50 [1] was 250 nM and the IC50 ([2]; Homo sapiens, MCF7, 72 h) was 40 nM.

`CC(C)c1cc(-c2n[nH]c(=S)n2-c2cccnc2)c(O)cc1O` [SH-a16] gave an IC50 [1] of 140 nM and an IC50 ([2]; Homo sapiens, MCF7, 72 h) of 240 nM.

`CC(C)c1cc(-c2n[nH]c(=S)n2C(C)C)c(O)cc1O` [SH-a21, 5-(2,4-dihydroxy-5-isopropyl-phenyl)-4-isopropyl-2,4-dihydro-[1,2,4]-triazol-3-thione] gave an IC50 [1] of 220 nM and an IC50 ([2]; Homo sapiens, MCF7, 72 h) of 400 nM.

`CC(C)Cn1c(-c2cc(C(C)C)c(O)cc2O)n[nH]c1=S` [SH-a22, 5-(2,4-dihydroxy-5-isopropyl-phenyl)-4-isobutyl-2,4-dihydro-[1,2,4]triazol-3-thione] showed an IC50 [1] of 270 nM and an IC50 ([2]; Homo sapiens, MCF7, 72 h) of 450 nM.

With `CC(C)c1cc(-c2n[nH]c(=S)n2C2CCCCC2)c(O)cc1O` [SH-a23, 5-(2,4-dihydroxy-5-isopropyl-phenyl)-4-cyclohexyl-2,4-dihydro-[1,2,4]triazol-3-thione] the IC50 [1] was 420 nM and the IC50 ([2]; Homo sapiens, MCF7, 72 h) was 330 nM.

For `CC(C)c1cc(-c2n[nH]c(=S)n2C2CCN(Cc3ccccc3)CC2)c(O)cc1O` [SH-a25•TFA], the IC50 [1] was 1000 nM and the IC50 ([2]; Homo sapiens, MCF7, 72 h) was 890 nM.

For `CC(C)c1cc(-c2n[nH]c(=S)n2CCc2cccnc2)c(O)cc1O` [SH-a28, 5-(2,4-dihydroxy-5-isopropylphenyl)-4-(2-pyridin-3-ylethyl)-2,4-dihydro-[1,2,4]triazol-4-thione], the IC50 [1] was 430 nM and the IC50 ([2]; Homo sapiens, MCF7, 72 h) was 7200 nM.

Work on `CC(C)c1cc(-c2n[nH]c(=S)n2CC2CCCO2)c(O)cc1O` (stereo not shown) [SH-a31, 5-(2,4-dihydroxy-5-isopropylphenyl)-4-(tetrahydrofuran-2-ylmethyl)-2,4-dihydro-[1,2,4]triazol-3-thione] yielded an IC50 [1] of 310 nM and an IC50 ([2]; Homo sapiens, MCF7, 72 h) of 550 nM.

`COCCn1c(-c2cc(C(C)C)c(O)cc2O)n[nH]c1=S` [SH-a32, 5-(2,4-dihydroxy-5-isopropyl-phenyl)-4-(2-methoxy-ethyl)-2,4-dihydro-[1,2,4]triazol-3-thione] gave an IC50 [1] of 240 nM and an IC50 ([2]; Homo sapiens, MCF7, 72 h) of 550 nM.

For `Oc1ccc(-c2nnc(S)n2-c2ccccc2)c(O)c1` [SH-b04, reference compound], the IC50 [1] was 170 nM and the IC50 ([2]; Homo sapiens, MCF7, 72 h) was 5700 nM.

Work on `Cc1ccccc1-n1c(S)nnc1-c1ccc(O)cc1O` [SH-b05, reference compound] yielded an IC50 [1] of 200 nM and an IC50 ([2]; Homo sapiens, MCF7, 72 h) of 9000 nM.

`COc1ccc(OC)c(-n2c(S)nnc2-c2ccc(O)cc2O)c1` [SH-b06, reference compound] showed an IC50 [1] of 690 nM and an IC50 ([2]; Homo sapiens, MCF7, 72 h) of 77000 nM.

`CC#CCc1cc(-c2n[nH]c(=S)n2-c2ccc(CN3CCOCC3)cc2)c(O)cc1O` [SH-c02-TF, 4-(but-2-ynyl)-6-{5-mercapto-4-[4-morpholin-4-ylmethyl]-phenyl}-4H-[1,2,4]trioazol-3-yl]-benzene-1,3-diol trifluoroacetate] showed an IC50 [1] of 250 nM and an IC50 ([2]; Homo sapiens, MCF7, 72 h) of 480 nM.

`COc1ccc(-n2c(-c3cc(C(C)(C)C)c(O)cc3O)n[nH]c2=S)cc1` [SH-f08] showed an IC50 [1] of 560 nM and an IC50 ([2]; Homo sapiens, MCF7, 72 h) of 3000 nM.

For `CSc1nnc(-c2cc(C(C)C)c(O)cc2O)n1-c1ccc(CN2CCOCC2)cc1` [SMe-a02-TF, 4-isopropyl-6-{5-methylsulfanyl-4-[4-(morpholin-4-ylmethyl)-phenyl]-4H-[1,2,4]triazol-3-yl}-benzene-1,3-diol trifluoroacetate], the IC50 [1] was 470 nM and the IC50 ([2]; Homo sapiens, MCF7, 72 h) was 530 nM.

In the case of `COc1ccc(-n2c(SCCN(C)C)nnc2-c2cc(C(C)C)c(O)cc2O)cc1` [SR2-a08, 4-[5-(3-dimethylamino-ethylsulfanyl)-4-(4-methoxy-phenyl)-4H-[1,2,4]triazol-3-yl]-6-isopropyl-benzene-1,3-diol], the IC50 [1] is reported as 740 nM and the IC50 ([2]; Homo sapiens, MCF7, 72 h) is reported as 1800 nM.
